Laboratory results from US7576086B2, “Aralkyl-alcohol peiperazine derivatives and their uses as antidepressant” (Shanghai Institute of Pharmaceutical Industry, priority 2002, dated 2009).

Experiments:
[1] = test system: Brain Synaptosome Uptake of NA; assay: Inhibition of [3H]-NA uptake by brain synaptosomes; assay type: biochemical, rats; conditions: 0.1 mmol/L; rat frontal cortex synaptosomes; inhibited ratio by Desipramine counts 100%
Text: (§1) The trial of uptaking the mono-amines neurotransmitter by synaptosomes is now one of the common method to study the central nervous pharmacology. This method is not only used to study the action mechanism of the medicament, but also to look for new antidepressant drugs which act on this tache. […] The method is recounted as follows:
(§2) (1). Preparation of synaptosomes. According to the described method by literatures (a. Biochem Pharmacol 1973, 22: 311-322, b. Methods in Neurochemistry, Vol. 2, New York: Marcel Dakker, Inc, 1972, 1-52), rats were decapitated, the brains rapidly excised, and frontal cortex dissected out on ice-cold saline (4° C.). The 3 g tissue was homogenized in 30 ml of ice-cold 0.32M sucrose and then centrifuged (1500 g) for 10 min (4° C.). The pellet was discarded and the supernatant centrifuged (20000 g) for 30 min (4° C.). After refined, the pellet was resuspended in buffer and immediately used. Protein content was deter mined with kit of total protein.
(§3) (2). Uptake of 5-HT. According to the described method by literatures (Br J Pharmacol, 1997, 122: 302-306; b. 1992, 105: 147-151), in the tubes, 1.0 ml artificial cerebral fluid, 20 μl suspension of synaptosomes and 10 μl solution of compound were added. After mixing, the tubes were incubated 5 min in 37° C. Uptake was started by addition of 10 μl [^3H]-5-HT or [^3H]-NA (300 nM), after another mixing, the tubes were incubated again 5 min in 37° C. The reaction was stopped by cooling the tubes in ice, the samples were then filtered through glass fibre filters and washed twice with artificial cerebral fluid. After drying in 60-70° C., the filter membranes were put into scintillation tubes. Filter-bound radioactivity was counted by scintillation spectrometry. The difference in [^3H]-5-HT or [^3H]-NA at 37° C. and 0° C. was taken as a measure of active uptake.

[2] = test system: Brain Synaptosome Uptake of 5-HT; assay: Inhibition of [3H]-5-HT uptake by brain synaptosomes; assay type: biochemical, rats; conditions: 0.1 mmol/L; rat frontal cortex synaptosomes; inhibited ratio by Fluoxetine counts 100%
Text: as §1, §2, §3

[3] = test system: mouse; assay: Mouse forced swimming test; assay type: in vivo; conditions: control 93.4±27.36
Procedure: (§4) Using the tail suspension test of “behavioural despair” and the mouse forced swimming test, and choosing Desipra mine as control medicament, to study the primary antidepressant effect of IV-19 that has the strong inhibited effect for both uptake of 5-HT and NA. The results are as follows:
(2). In the mouse forced swimming test, IV-19 also can diminish obviously the immobile times of mouse in water due to despair. As the results of tail suspension test, the effect induced by 50 mg/kg IV-19 (46.3±30.2 sec) is the same as 10 mg/kg Desipra mine (46±27.36 sec), but a significant difference occurs when comparing with control (93.4±27.36).

[4] = test system: mouse; assay: Tail suspension test of behavioural despair; assay type: in vivo; conditions: control 89.7±38.27
Procedure: as §4
(1). In the tail suspension test, IV-19 can diminish obviously the immobile times of mouse due to despair. The effect induced by 50 mg/kg IV-19 (20.2±16.05 sec) is the same as 10 mg/kg Desipra mine (27.5±21.93 sec), but a significant difference occurs when comparing with control (89.7±38.27).

[5] = test system: S. Typhimurium TA97, TA98, TA100 and TA102; assay: Bacterial reverse-mutation assay (Ames TS); assay type: cell-based
Text: 4. Bacterial reverse-mutation assay (Ames TS) of IV-19
Bacillus: S. Typhimurium TA97, TA98, TA100 and TA102
All tested doses didn't induce the evident increase of revertants, Ames TS of […] is negative.

[6] = test system: mice; assay: Acute toxicity; assay type: in vivo; conditions: p.o. in mice, calculated with Bliss

| Compound | Inhibited ratio of uptake for NA(%) [1] | Inhibited ratio of uptake for 5-HT(%) [2] | also measured |
| --- | --- | --- | --- |
| Cl.Cl.OC(c1ccccc1)C(c1ccccc1)N1CCN(Cc2ccccc2)CC1 (centres unmarked) [IV-8, N^1-benzyl-N^4-[(1,2-diphenyl)ethyl-2-ol] piperazine dihydrochloride] | 104% | <10% | – |
| N^1-(R-1-phenylethyl)-N^4-[1-(5-chloro-6-methoxyl-naphthalen-2-yl)-propane-2-yl-1-ol] piperazine dihydrochloride [IV-35] | 58% | 107% | – |
| N^1-(4-chlorobenzyl)-N^4-(phenylpropane-2-yl-3-ol) piperazine dihydrochloride [IV-2] | 62% | 82% | – |
| COc1ccc2cc(C(O)C(C)N3CCN(Cc4ccc([N+](=O)[O-])cc4)CC3)ccc2c1Cl.Cl.Cl (centres unmarked) [IV-20, N^1-(4-nitrobenzyl)-N^4-[1-(5-chloro-6-methoxyl-naphthalen-2-yl)-propane-2-yl-1-ol] piperazine dihydrochloride] | 108% | 110% | – |
| N^1-(4-fluorobenzyl)-N^4-(2-phenylethyl-2-ol) piperazine dihydrochloride [IV-6] | 107% | 79% | – |
| COc1ccc2cc(C(O)C(C)N3CCN(CC(O)c4ccccc4)CC3)ccc2c1Cl.Cl.Cl (centres unmarked) [IV-18, N^1-(2-phenylethyl-2-ol)-N^4-[1-(5-chloro-6-methoxyl-naphthalen-2-yl)-propane-2-yl-1-ol] piperazine dihydrochloride] | 23% | 127% | – |
| COc1cc(CN2CCN(C(C)C(O)c3ccc4c(Cl)c(OC)ccc4c3)CC2)cc(OC)c1OC.Cl.Cl (centres unmarked) [IV-22, N^1-(3,4,5-trimethoxybenzyl)-N^4-[1-(5-chloro-6-methoxyl-naphthalen-2-yl)-propane-2-yl-1-ol] piperazine dihydrochloride] | 77% | 116% | – |
| CNCCCN1c2ccccc2CCc2ccccc21 [Desipra mine, reference compound] | 100% | – | immobile times of mouse in water, forced swimming test ([3]; 10 mg/kg): 46 ± 27.36 s; immobile times of mouse, tail suspension test ([4]; 10 mg/kg): 27.5 ± 21.93 s |
| N^1-benzyl-N^4-[1-(5-chloro-6-methoxyl-naphthalen-2-yl)-propane-2-yl-1-ol] piperazine dihydrochloride [IV-19] | 140% | 114% | immobile times of mouse in water, forced swimming test ([3]; 50 mg/kg): 46.3 ± 30.2 s; Ames TS result (increase of revertants) ([5]; TA97, TA98, TA100, TA102, without S9 and with S9, all tested doses): negative; inhibitory effect for the growth of bacteria ([5]; TA97, with S9, 5000 μg/utensil): inhibitory effect; inhibitory effect for the growth of bacteria ([5]; TA98, without S9, 5000 μg/utensil): inhibitory effect; immobile times of mouse, tail suspension test ([4]; 50 mg/kg): 20.2 ± 16.05 s; LD50 [6]: about 1 g/kg |
| N^1-(4-nitrobenzyl)-N^4-(2-phenylethyl-2-ol) piperazine dihydrochloride [IV-26] | 80% | 63% | – |
| N^1-(S-1-phenylethyl)-N^4-[1-(5-chloro-6-methoxyl-naphthalen-2-yl)-propane-2-yl-1-ol] piperazine dihydrochloride [IV-34] | 10% | 108% | – |
| Cl.Cl.OC(CN1CCN(Cc2ccc(F)cc2)CC1)c1ccc(Cl)cc1 (centres unmarked) [IV-11, N^1-(4-fluorobenzyl)-N^4-[2-(4-chlorophenyl)ethyl-2-ol] piperazine dihydrochloride] | 101% | 81% | – |
| COc1ccc2cc(C(O)C(C)N3CCN(c4cccc(Cl)c4)CC3)ccc2c1Cl.Cl.Cl (centres unmarked) [IV-17, N^1-(3-chlorophenyl)-N^4-[1-(5-chloro-6-methoxyl-naphthalen-2-yl)-propane-2-yl-1-ol] piperazine dihydrochloride] | 30% | 99% | – |
| N^1-benzyl-N^4-[2-(4-chlorophenyl)ethyl-2-ol] piperazine dihydrochloride [IV-4] | 51% | 85% | – |
